In this assay the target is human VR1 (Homo sapiens, UniProt Q8NER1). Nature of the assay: Acid stimulation assay (acid-induced intracellular calcium change, FDSS 6000). The format is cell-based. As to conditions: final assay buffer pH5.8, 15 min pre-incubation, read-out: IC50 (nM) Low pH. An excerpt:
VR1 antagonistic activity can be determined by the Ca^2+ imaging assay using human VR1 highly expressing cells. The cells that highly express human VR1 receptors are obtainable from several different conventional methods. The one standard method is cloning from human Dorsal Root Ganglion (DRG) or kidney according to the methods such as described in the journal article; Nature, 389, pp 816-824, 1997. Alternatively VR1 receptors highly expressing human keratinocytes are also known and published in the journal article (Biochemical and Biophysical Research Communications, 291, pp 124-129, 2002). […] Furthermore, the method to up regulate human VR1 gene, which is usually a silent gene or don't produce detectable level of VR1 receptors, is also available to obtain propriety cells. Such genetic modification method was described in detail; Nat. Biotechnol., 19, pp 440-445, 2001.
The cells that express human VR1 receptors were maintained in culture flask at 37° C. in an environment containing 5% CO2 until use in the assay. The intracellular Ca^2+ imaging assay to determine VR1 antagonistic activities were done by following procedures.
The culture medium was removed from the flask and fura-2/AM fluorescent calcium indicator was added to the flask at a concentration of 5 μM in the medium. The flask was placed in CO2 incubator and incubated for 1 hour. Then the cells expressing the human VR1 receptors were detached from the flask follow by washing with phosphate buffer saline, PBS(−) and re-suspended in assay buffer. The 80 tit of aliquot of cell suspension (3.75×10^5 cells/ml) was added to the assay plate and the cells were spun down by centrifuge (950 rpm, 20° C., 3 minutes).
The Acid-induced changes in the intracellular calcium concentration were monitored using FDSS 6000 (Hamamatsu Photonics, Japan), a fluorometric imaging system. The cell suspension in resting buffer (HBSS supplemented with 10 mM HEPES, pH 7.4) were pre-incubated with varying concentrations of the test compounds or resting buffer (buffer control) for 15 minutes at room temperature under the dark condition. The cells were automatically added the stimulating solution (HBSS supplemented with MES, final assay buffer pH5.8) by the FDSS 6000.
The Acid-induced changes in the intracellular calcium concentration were monitored using FDSS 6000 (Hamamatsu Photonics, Japan), a fluorometric imaging system. The cell suspension in resting buffer (HBSS supplemented with 10 mM HEPES, pH 7.4) was pre-incubated with varying concentrations of the test compounds or resting buffer (buffer control) for 15 minutes at room temperature under dark conditions. The cells were automatically added to the stimulating solution (HBSS supplemented with MES, final assay buffer pH5.8) by the FDSS 6000.

SMILES strings stand for the structures. Structures can show the parent of a compound that is named as a salt.

Chain of human VR1 (Q8NER1 whole entry): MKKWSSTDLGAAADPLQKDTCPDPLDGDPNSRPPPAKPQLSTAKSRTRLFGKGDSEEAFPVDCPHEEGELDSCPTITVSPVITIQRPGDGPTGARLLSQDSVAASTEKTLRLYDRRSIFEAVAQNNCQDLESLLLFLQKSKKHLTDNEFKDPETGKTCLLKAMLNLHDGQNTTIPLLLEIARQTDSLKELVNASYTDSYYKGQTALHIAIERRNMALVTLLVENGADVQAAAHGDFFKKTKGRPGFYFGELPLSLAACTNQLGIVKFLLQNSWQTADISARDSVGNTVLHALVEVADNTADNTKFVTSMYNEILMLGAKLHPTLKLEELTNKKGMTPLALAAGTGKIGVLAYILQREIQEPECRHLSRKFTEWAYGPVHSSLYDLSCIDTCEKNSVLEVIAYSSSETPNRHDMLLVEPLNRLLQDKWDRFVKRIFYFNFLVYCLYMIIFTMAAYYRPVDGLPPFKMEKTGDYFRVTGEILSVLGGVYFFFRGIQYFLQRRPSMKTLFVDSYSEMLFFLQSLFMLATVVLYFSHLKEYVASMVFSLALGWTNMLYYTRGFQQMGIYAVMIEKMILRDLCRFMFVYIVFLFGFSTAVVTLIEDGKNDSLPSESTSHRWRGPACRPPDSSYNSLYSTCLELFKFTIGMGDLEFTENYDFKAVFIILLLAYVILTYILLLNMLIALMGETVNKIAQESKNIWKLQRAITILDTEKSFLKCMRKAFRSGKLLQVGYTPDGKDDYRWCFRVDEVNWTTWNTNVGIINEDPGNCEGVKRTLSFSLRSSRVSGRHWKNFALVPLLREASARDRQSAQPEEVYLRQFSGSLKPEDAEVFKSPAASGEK

In the case of `Cc1cc([C@@H](C)NC(=O)c2ccc3cc(C(C)(C)C)ccc3c2)ccc1NS(C)(=O)=O` [Example 1, 6-TERT-BUTYL-N-((1R)-1-{3-METHYL-4-[(METHYLSULFONYL)AMINO]PHENYL}ETHYL)-2-NAPHTHAMIDE], the IC50 was found to be 3 nM. The figure for `Cc1nc([C@@H](C)NC(=O)c2ccc3cc(C(C)(C)C)ccc3c2)ccc1NS(C)(=O)=O` [Example 2, 6-TERT-BUTYL-N-((1R)-1-{6-METHYL-5-[(METHYLSULFONYL)AMINO]PYRIDIN-2-YL}ETHYL)-2-NAPHTHAMIDE] is 4 nM. Take `C[C@@H](NC(=O)c1ccc2cc(C(F)(F)F)ccc2n1)c1cc(F)c(NS(C)(=O)=O)c(F)c1` [Example 3, ((1R)-1-{3,5-DIFLUORO-4-[(METHYLSULFONYL)AMINO]PHENYL}ETHYL)-6-(TRIFLUORO-METHYL)QUINOLINE-2-CARBOXAMIDE]: the IC50 was 4 nM. To `Cc1cc([C@@H](C)NC(=O)c2cnc3cc(C(F)(F)F)ccc3c2)ccc1NS(C)(=O)=O` [Example 4, (1R)-1-{3-METHYL-4-[(METHYLSULFONYL)AMINO]PHENYL}ETHYL)-7-(TRIFLUOROMETHYL)QUINOLINE-3-CARBOXAMIDE] belongs 100 nM; to `C[C@@H](NC(=O)c1ccc2cc(C(C)(C)C)ccc2n1)c1cc(F)c(NS(C)(=O)=O)c(F)c1` [Example 7, 6-TERT-BUTYL-N-((1R)-1-{3,5-DIFLUORO-4-[(METHYLSULFONYL)AMINO]PHENYL}-ETHYL)QUINOLINE-2-CARBOXAMIDE], 1 nM; to `Cc1cc([C@@H](C)NC(=O)c2ccc3cc(C(C)C)ccc3n2)ccc1NS(C)(=O)=O` [Example 9, 6-ISOPROPYL-N-((1R)-1-{3-METHYL-4-[(METHYLSULFONYL)AMINO]PHENYL}ETHYL)-QUINOLINE-2-CARBOXAMIDE], 714 nM. As to `Cc1cc([C@@H](C)NC(=O)c2cnc3cc(C(F)(F)F)ccc3c2C)ccc1NS(C)(=O)=O` [Example 11, 4-METHYL-N-((1R)-1-{3-METHYL-4-[(METHYLSULFONYL)AMINO]PHENYL}ETHYL)-7-(TRIFLUOROMETHYL)QUINOLINE-3-CARBOXAMIDE], the IC50 is 240 nM. The figure for `Cc1cc([C@@H](C)NC(=O)c2ccc3cc(Br)ccc3n2)ccc1NS(C)(=O)=O` [Example 12, 6-BROMO-N-((1R)-1-{3-METHYL-4-[(METHYLSULFONYL)AMINO]PHENYL}ETHYL)-QUINOLINE-2-CARBOXAMIDE] is 444 nM; for `Cc1cc([C@@H](C)NC(=O)c2ccc3cc(C(C)(C)C)ccc3c2)c(F)cc1NS(C)(=O)=O` [Example 13, 6-TERT-BUTYL-N-((1R)-1-{2-FLUORO-5-METHYL-4-[(METHYLSULFONYL)AMINO]PHENYL}-ETHYL)-2-NAPHTHAMIDE] it is 127 nM.

As to `Cc1cc([C@@H](C)NC(=O)c2ccc3cc(C(C)(C)C)ccc3n2)c(F)cc1NS(C)(=O)=O` [Example 14, 6-TERT-BUTYL-N-((1R)-1-{2-FLUORO-5-METHYL-4-[(METHYLSULFONYL)AMINO]PHENYL}-ETHYL)QUINOLINE-2-CARBOXAMIDE], the IC50 amounted to 288 nM. The figure for `C[C@@H](NC(=O)c1ccc2nc(C(C)(C)C)ccc2c1)c1cc(F)c(NS(C)(=O)=O)c(F)c1` [Example 15, 2-TERT-BUTYL-N-((1R)-1-{3,5-DIFLUORO-4-[(METHYLSULFONYL)AMINO]PHENYL}ETHYL)-QUINOLINE-6-CARBOXAMIDE HYDROCHLORIDE] is 24 nM. To `Cc1cc([C@@H](C)NC(=O)c2ccc3cc(C(C)(C)O)ccc3n2)ccc1NS(C)(=O)=O` [Example 16] belongs 71 nM.

As to `Cc1cc([C@@H](C)NC(=O)c2ccc3cc(Br)ccc3c2)ccc1NS(C)(=O)=O` [Example 17, 6-BROMONAPHTHALENE-2-CARBOXYLIC ACID [(R)-1-(4-METHANESULFONYLAMINO-3-METHYLPHENYL)ETHYL]AMIDE], the IC50 came out at 14 nM. The figure for `Cc1cc([C@@H](C)NC(=O)c2ccc3cc(F)ccc3c2)ccc1NS(C)(=O)=O` [Example 18, 6-FLUORONAPHTHALENE-2-CARBOXYLIC ACID [(R)-1-(4-METHANESULFONYL-AMINO-3-METHYLPHENYL)ETHYL]AMIDE] is 83 nM; for `Cc1cc([C@@H](C)NC(=O)c2ccc3ccccc3c2)ccc1NS(C)(=O)=O` [Example 19, NAPHTHALENE-2-CARBOXYLIC ACID [(R)-1-(4-METHANESULFONYLAMINO-3-METHYLPHENYL)ETHYL]AMIDE] it is 63 nM; for `COc1ccc2cc(C(=O)N[C@H](C)c3ccc(NS(C)(=O)=O)c(C)c3)ccc2c1` [Example 20, 6-METHOXYNAPHTHALENE-2-CARBOXYLIC ACID [(R)-1-(4-METHANESULFONYL-AMINO-3-METHYLPHENYL)ETHYL]AMIDE] it is 8 nM.

Regarding `Cc1cc([C@@H](C)NC(=O)c2ccc3cc(N4CCCC4)ccc3c2)ccc1NS(C)(=O)=O` [Example 21, 6-PYRROLIDIN-1-YL-NAPHTHALENE-2-CARBOXYLIC ACID [(R)-1-(4-METHANESULFONYL-AMINO-3-METHYLPHENYL)ETHYL]AMIDE], the IC50 turned out to be 44 nM.

For `Cc1cc([C@@H](C)NC(=O)c2ccc3cc(C4CC4)ccc3c2)ccc1NS(C)(=O)=O` [Example 22, 6-CYCLOPROPYLNAPHTHALENE-2-CARBOXYLIC ACID [(R)-1-(4-METHANESULFONYL-AMINO-3-METHYLPHENYL)ETHYL]AMIDE], the half-inhibitory concentration (IC50) came to 3 nM. To `Cc1cc([C@@H](C)NC(=O)c2cc3ccc(Cl)cc3nc2C)ccc1NS(C)(=O)=O` [Example 23, 7-CHLORO-2-METHYL-QUINOLINE-3-CARBOXYLIC ACID [(R)-1-(4-METHANESULFONYL-AMINO-3-METHYLPHENYL)ETHYL]AMIDE] belongs 379 nM. In the case of `C[C@@H](NC(=O)c1cnc2cc(C(F)(F)F)ccc2c1)c1cc(F)c(NS(C)(=O)=O)c(F)c1` [Example 27, N-((1R)-1-{3,5-DIFLUORO-4-[(METHYLSULFONYL)AMINO]PHENYL}ETHYL)-7-(TRIFLUOROMETHYL)QUINOLINE-3-CARBOXAMIDE], the IC50 is 105 nM. The figure for `CC(=O)c1ccc2nc(C(=O)N[C@H](C)c3ccc(NS(C)(=O)=O)c(C)c3)ccc2c1` [Example 28, 6-ACETYL-N-((1R)-1-{3-METHYL-4-[(METHYLSULFONYL)AMINO]PHENYL}ETHYL)-QUINOLINE-2-CARBOXAMIDE] is 187 nM; for `Cc1cc([C@@H](C)NC(=O)c2cnc3ccc(C(C)(C)C)cc3c2)ccc1NS(C)(=O)=O` [Example 29, 6-TERT-BUTYL-N-((1R)-1-{3-METHYL-4-[(METHYLSULFONYL)AMINO]PHENYL}ETHYL)-QUINOLINE-3-CARBOXAMIDE] it is 231 nM; for `CC(C)c1ccc2cc(C(=O)N[C@H](C)c3cc(F)c(NS(C)(=O)=O)c(F)c3)ccc2n1` [Example 31, N-((1R)-1-{3,5-DIFLUORO-4-[(METHYLSULFONYL)AMINO]PHENYL}ETHYL)-2-ISOPROPYL-QUINOLINE-6-CARBOXAMIDE] it is 47 nM. To `Cc1cc([C@@H](C)NC(=O)c2ccc3nc(C(F)(F)F)ccc3c2)c(F)cc1NS(C)(=O)=O` [Example 32, N-((1R)-1-{2-FLUORO-5-METHYL-4-[(METHYLSULFONYL)AMINO]PHENYL}ETHYL)-2-(TRIFLUOROMETHYL)QUINOLINE-6-CARBOXAMIDE] belongs 6 nM; to `Cc1cc([C@@H](C)NC(=O)c2cnc3cc(C(C)(C)C)ccc3c2)ccc1NS(C)(=O)=O` [Example 33, 7-TERT-BUTYL-N-((1R)-1-{3-METHYL-4-[(METHYLSULFONYL)AMINO]PHENYL}ETHYL)-QUINOLINE-3-CARBOXAMIDE], 56 nM.

On to `C[C@@H](NC(=O)c1cnc2cc(C(F)(F)F)ccc2c1)c1ccc(NS(C)(=O)=O)c(F)c1` [Example 34, N-((1R)-1-{3-FLUORO-4-[(METHYLSULFONYL)AMINO]PHENYL}ETHYL)-7-(TRIFLUORO-METHYL)QUINOLINE-3-CARBOXAMIDE], for which the IC50 turned out to be 26 nM.

Turning to `Cc1cc([C@@H](C)NC(=O)c2ccc3nc(C(C)C)ccc3c2)ccc1NS(C)(=O)=O` [Example 35, 2-ISOPROPYL-N-((1R)-1-{3-METHYL-4-[(METHYLSULFONYL)AMINO]PHENYL}ETHYL)-QUINOLINE-6-CARBOXAMIDE], the IC50 came out at 5 nM. Consider `CC(C)c1ccc2cc(C(=O)N[C@H](C)c3cc(F)c(NS(C)(=O)=O)c(F)c3)cnc2c1` [Example 39, N-((1R)-1-{3,5-DIFLUORO-4-[(METHYLSULFONYL)AMINO]PHENYL}ETHYL)-7-ISOPROPYL-QUINOLINE-3-CARBOXAMIDE], for which the IC50 was determined as 13 nM. The figure for `Cc1cc([C@@H](C)NC(=O)c2ccc3cc(C(C)(C)C)ccc3c2)ncc1NS(C)(=O)=O` [Example 40, 6-TERT-BUTYL-N-((1R)-1-{4-METHYL-5-[(METHYLSULFONYL)AMINO]PYRIDIN-2-YL}ETHYL)-2-NAPHTHAMIDE] is 31 nM.

As usually defined, the IC50 is the midpoint of a concentration-inhibition curve.

For the origin of these results see US20120088746A1, “AMIDE DERIVATIVES AS ION-CHANNEL LIGANDS AND PHARMACEUTICAL COMPOSITIONS AND METHODS OF USING THE SAME” (PFIZER INC., priority 2006, published 2012).
